In patent publication US20030144360A1, “Composition and method for modulating BAR/FXR receptor activity” (Allergan Sales, Inc., priority 2001, published 2003):
“And” between values parts separate entries of the source, which are not always exact repeats. Equal entries are not always repeated.

Experiments:
BAR:RXR heterodimer = target: T1, BAR:RXR heterodimer (Homo sapiens, UniProt P19793+Q96RI1); test: Mammalian two hybrid assay detecting recruitment of CoA; type: cell-based
T1 construct: expressed in transfected cells
T1 sequence (Q96RI1 1-486): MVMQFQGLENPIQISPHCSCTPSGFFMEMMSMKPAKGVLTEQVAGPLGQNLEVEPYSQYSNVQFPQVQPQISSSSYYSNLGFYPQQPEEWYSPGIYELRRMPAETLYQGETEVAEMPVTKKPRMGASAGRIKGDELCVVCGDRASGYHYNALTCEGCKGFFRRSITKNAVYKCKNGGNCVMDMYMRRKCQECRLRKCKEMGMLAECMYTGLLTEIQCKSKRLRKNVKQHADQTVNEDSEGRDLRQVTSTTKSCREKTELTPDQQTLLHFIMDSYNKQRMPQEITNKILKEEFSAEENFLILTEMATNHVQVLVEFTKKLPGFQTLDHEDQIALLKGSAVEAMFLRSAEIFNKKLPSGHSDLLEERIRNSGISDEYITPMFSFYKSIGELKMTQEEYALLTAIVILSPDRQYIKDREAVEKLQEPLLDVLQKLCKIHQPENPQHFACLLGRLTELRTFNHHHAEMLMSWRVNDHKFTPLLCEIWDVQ
T1 sequence (P19793 1-462): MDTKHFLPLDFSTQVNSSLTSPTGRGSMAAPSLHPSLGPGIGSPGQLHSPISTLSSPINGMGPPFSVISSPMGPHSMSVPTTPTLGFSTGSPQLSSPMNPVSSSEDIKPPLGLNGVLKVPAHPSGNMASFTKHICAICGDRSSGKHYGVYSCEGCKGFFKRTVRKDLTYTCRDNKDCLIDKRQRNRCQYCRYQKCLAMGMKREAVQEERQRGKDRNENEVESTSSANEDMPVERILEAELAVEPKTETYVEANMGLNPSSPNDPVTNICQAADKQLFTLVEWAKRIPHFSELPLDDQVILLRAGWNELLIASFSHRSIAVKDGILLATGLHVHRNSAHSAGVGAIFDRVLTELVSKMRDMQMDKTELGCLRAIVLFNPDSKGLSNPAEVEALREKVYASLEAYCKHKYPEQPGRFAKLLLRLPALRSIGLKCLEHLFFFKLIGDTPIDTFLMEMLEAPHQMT

[1] = system: human AR, mouse PXR, human PXR, ERα, human LXRα, mouse PPARα, mouse PPARγ, mouse PPARδ, human VDR, human TRB, mouse CARβ; test: Repression of cognate ligand-induced activity of other nuclear receptor/RXR heterodimers (luciferase reporter); type: cell-based; conditions: 1 mM AGN 34 with cognate ligand
Description: Resulting chemiluminescence was measured in a luminometer.
Various other nuclear receptor/RXR heterodimers were incubated with the cognate ligand of the non-RXR component of the heterodimer. These were: human AR (androgen receptor), mouse PXR (10 μM pregnenolone-16-carbonitrile), human PXR (10 μM rifampicin), ERα (100 nM 17β-estradiol), human LXRα (30 μM hyodeoxycholic acid methyl ester), mouse PPARα (5 μM Wy 14,643), mouse PPARγ (1 μM rosiglitazone), mouse PPARδ (1 μM carbaprostacyclin), human VDR (100 nM 1,25-dihydroxyvitamin D3) and human TRB (100 nM triiodothyronine). No ligand was added to mouse CARβ which is constitutively active. Each compound was incubated in the presence or absence of 1 mM AGN 34, then assayed for luciferase reporter activity.

GAL-L-hRXRa = target: T2, GAL-L-hRXRa (Homo sapiens, UniProt P19793); test: Co-transfection luciferase assay, MH100 × 4 reporter, GAL-L-hRXRa alone
T2 sequence (P19793 203-462): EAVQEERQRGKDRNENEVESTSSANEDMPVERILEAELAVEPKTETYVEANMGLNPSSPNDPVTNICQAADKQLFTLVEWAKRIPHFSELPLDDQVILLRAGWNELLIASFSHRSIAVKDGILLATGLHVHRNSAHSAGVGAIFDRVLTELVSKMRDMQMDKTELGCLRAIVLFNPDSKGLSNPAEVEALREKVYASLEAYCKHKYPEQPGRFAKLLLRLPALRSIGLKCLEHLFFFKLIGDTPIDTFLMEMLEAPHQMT
Description: (§1) CV-1 African Green Monkey cells were grown in Dulbecco's Modified Eagle's medium supplemented with 10% resin-charcoal stripped fetal bovine serum (FBS), 50 U/ml penicillin G and 50 μg/ml streptomycin sulfate (DMEM-FBS) at 37° C. in 5% CO2. One day prior to transfection, cells were plated to 50-80% confluence using phenol red-free DMEM-FBS. Cells were transiently transfected by lipofection as described in Forman et al., 81 Cell 687 (1995). Liposomes (N-[1-(2,3-dioleoyloxy)propyl]-N,N,N-ammonium methyl sulfate, sold by Boehringer Mannheim under the name DOTAP) were formed according to the manufacturer's instructions. The liposomes contained reporter gene constructs (300 ng/10^5 cells); cytomegalovirus driven expression vectors (25 ng/10^5 cells) were added as indicated along with CMX-Bgal (500 ng/10^5 cells) as an internal control. After 2 hours the liposomes were removed and replaced with fresh media. Cells were incubated for approximately 40 hours with phenol red-free DMEM-FBS containing the indicated compounds. After exposure to the specified ligand, the cells were harvested.
(§2) The harvested cells were assayed for the presence of luciferase activity. Cells were lysed in 0.1 M KPO4 (pH 7.8), 1.0% TRITON® X-100, 1.0 mM dithiolthreitol (DTT) and 2 mM ethylenediamine tetracetic acid (EDTA). Luciferase activity was measured by reaction of the cell lysates with luciferin in a reaction buffer comprising: 20 mM tricine, 1.07 mM Mg(CO3)4-Mg(OH)2-5H2O, 2.67 mM MgSO4.7H2O, 0.1 mM EDTA, 0.5 mM Sodium luciferin, 0.15 mg/ml Coenzyme A, 5 mM DTT, and 0.5 mM adenosine triphosphate (ATP). Resulting chemiluminescence was measured in a luminometer. […] All points were assayed in triplicate and varied by less than 15%. Each experiment was repeated three or more times with similar results.
(§3) As shown below, in most cases hRXRop was recombinantly coexpressed with one other of the indicated receptor constructs, so as to permit the formation of hetero-or homodimers containing hRXRop.
(§4) Expression of the luciferase reporter gene product was detected and quantified as described above.

HFXR / HRXRop = target: T3, HFXR / HRXRop (Homo sapiens, UniProt P19793+Q96RI1); test: Co-transfection luciferase assay, EcRE × 6 reporter, HFXR + HRXRop;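 also: CV-1 monkey cells transfected with receptor vectors, luciferase reporter and β-galactosidase internal control, exposed to compounds about 40 h, then lysed and luminescence read in a luminometer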
T3 sequence (Q96RI1 1-486): T1 sequence (Q96RI1 1-486)
T3 sequence (P19793 1-462): T1 sequence (P19793 1-462)
Description: as §1, §2, §3, §4

CCCCCCOc1c(\C(C)=C/C=C/C(C)=C/C(=O)O)cc(C(C)C)cc1C(C)C [AGN 34, (2E, 4E, 6Z)-7-(2-Hexyloxy-3,5-diisopropylphenyl)-3-methylocta-2,4,6-trienoic Acid]
recruitment of CoA (BAR:RXR heterodimer): inhibits recruitment | repression of specific ligand-induced activity of other nuclear receptors [1]: unable to repress | Fold Activation (GAL-L-hRXRa; 0.1 μM LG268 + 0.01 μM AGN 34): 33.56 fold | Reporter Activity (GAL-L-hRXRa; 0.1 μM LG268 + 0.01 μM AGN 34): 11.17 | Fold Activation (GAL-L-hRXRa; 0.1 μM LG268 + 0.1 μM AGN 34): 8.61 fold | Reporter Activity (GAL-L-hRXRa; 0.1 μM LG268 + 0.1 μM AGN 34): 2.86 | Fold Activation (GAL-L-hRXRa; 0.1 μM LG268 + 1 μM AGN 34): 1.07 fold | Reporter Activity (GAL-L-hRXRa; 0.1 μM LG268 + 1 μM AGN 34): 0.36 | Fold Activation (GAL-L-hRXRa; 0.1 μM LG268 + 3 μM AGN 34): 1.05 fold | Reporter Activity (GAL-L-hRXRa; 0.1 μM LG268 + 3 μM AGN 34): 0.35 | Fold Activation (GAL-L-hRXRa; 0.1 μM LG268 + 10 μM AGN 34): 0.98 fold | Reporter Activity (GAL-L-hRXRa; 0.1 μM LG268 + 10 μM AGN 34): 0.33 | Fold Activation (GAL-L-hRXRa; 10 μM AGN 34 alone): 1.14 fold and 1.12 fold | Reporter Activity (GAL-L-hRXRa; 10 μM AGN 34 alone): 0.38 and 0.37 | Fold Activation (GAL-L-hRXRa; 50 μM CDCA + 0.01 μM AGN 34): 1.03 fold | Reporter Activity (GAL-L-hRXRa; 50 μM CDCA + 0.01 μM AGN 34): 0.34 | Fold Activation (GAL-L-hRXRa; 50 μM CDCA + 0.1 μM AGN 34): 0.92 fold | Reporter Activity (GAL-L-hRXRa; 50 μM CDCA + 0.1 μM AGN 34): 0.31 | Reporter Activity (GAL-L-hRXRa; 50 μM CDCA + 1 μM AGN 34): 0.37 | Fold Activation (GAL-L-hRXRa; 50 μM CDCA + 3 μM AGN 34): 1.05 fold | Reporter Activity (GAL-L-hRXRa; 50 μM CDCA + 3 μM AGN 34): 0.35 | Fold Activation (GAL-L-hRXRa; 50 μM CDCA + 10 μM AGN 34): 1.10 fold | Reporter Activity (GAL-L-hRXRa; 50 μM CDCA + 10 μM AGN 34): 0.37 | Fold Activation (HFXR / HRXRop; 0.1 μM LG268 + 0.01 μM AGN 34): 2.36 fold | Reporter Activity (HFXR / HRXRop; 0.1 μM LG268 + 0.01 μM AGN 34): 0.76 | Fold Activation (HFXR / HRXRop; 0.1 μM LG268 + 0.1 μM AGN 34): 1.45 fold | Reporter Activity (HFXR / HRXRop; 0.1 μM LG268 + 0.1 μM AGN 34): 0.47 | Fold Activation (HFXR / HRXRop; 0.1 μM LG268 + 1 μM AGN 34): 1.23 fold | Reporter Activity (HFXR / HRXRop; 0.1 μM LG268 + 1 μM AGN 34): 0.40 | Fold Activation (HFXR / HRXRop; 0.1 μM LG268 + 3 μM AGN 34): 1.26 fold | Reporter Activity (HFXR / HRXRop; 0.1 μM LG268 + 3 μM AGN 34): 0.41 | Fold Activation (HFXR / HRXRop; 0.1 μM LG268 + 10 μM AGN 34): 1.22 fold | Reporter Activity (HFXR / HRXRop; 0.1 μM LG268 + 10 μM AGN 34): 0.39 | Fold Activation (HFXR / HRXRop; 10 μM AGN 34 alone): 1.21 fold and 1.35 fold | Reporter Activity (HFXR / HRXRop; 10 μM AGN 34 alone): 0.41 and 0.44 | Fold Activation (HFXR / HRXRop; 50 μM CDCA + 0.01 μM AGN 34): 15.00 fold | Reporter Activity (HFXR / HRXRop; 50 μM CDCA + 0.01 μM AGN 34): 5.14 | Fold Activation (HFXR / HRXRop; 50 μM CDCA + 0.1 μM AGN 34): 11.73 fold | Reporter Activity (HFXR / HRXRop; 50 μM CDCA + 0.1 μM AGN 34): 4.02 | Fold Activation (HFXR / HRXRop; 50 μM CDCA + 1 μM AGN 34): 7.08 fold and 5.51 fold | Reporter Activity (HFXR / HRXRop; 50 μM CDCA + 1 μM AGN 34): 2.42 | Fold Activation (HFXR / HRXRop; 50 μM CDCA + 3 μM AGN 34): 5.78 fold | Reporter Activity (HFXR / HRXRop; 50 μM CDCA + 3 μM AGN 34): 1.98 | Fold Activation (HFXR / HRXRop; 50 μM CDCA + 10 μM AGN 34): 6.58 fold | Reporter Activity (HFXR / HRXRop; 50 μM CDCA + 10 μM AGN 34): 2.25
